Data on 24 compounds can be found in ChEMBL document CHEMBL3826900, “Inhibitors for the bacterial ectonucleotidase Lp1NTPDase from Legionella pneumophila” (Bioorg Med Chem, 2016).

Structures are written as SMILES. Calls of active or inactive are those of the source. The rule behind the calls is not given here.

The nature of assay [1]: Inhibition of recombinant Legionella pneumophila 130b His6-tagged NTPDase (41 to 393 residues) expressed in Escherichia coli BL21(DE3) cells using ADP as substrate incubated for 10 mins by capillary electrophoresis method.
Assay [2] deals with Legionella pneumophila 130b. Put plainly: Inhibition of recombinant Legionella pneumophila 130b His6-tagged NTPDase (41 to 393 residues) expressed in Escherichia coli BL21(DE3) cells using ADP as substrate at 30 uM incubated for 10 mins by capillary electrophoresis method relative to control.
Assay [3] in a line: Inhibition of recombinant Legionella pneumophila 130b His6-tagged NTPDase (41 to 393 residues) expressed in Escherichia coli BL21(DE3) cells using ADP as substrate incubated for 10 mins by Cheng-Prusoff equation analysis.
Assay [4] in a line: Inhibition of Legionella pneumophila NTPDase.
Assay [5] deals with Legionella pneumophila 130b. The conditions noted are these: 3 uM.
The subject of assay [6] is Legionella pneumophila 130b. Put plainly: Competitive inhibition of recombinant Legionella pneumophila 130b His6-tagged NTPDase (41 to 393 residues) expressed in Escherichia coli BL21(DE3) cells at 3 to 6 uM incubated for 10 mins in presence of varying levels of ADP by Lineweaver-Burk plot analysis.
The subject of assay [7] is Legionella pneumophila 130b. As to conditions: 3 uM. The source holds these as a separate data set.
The subject of assay [8] is Legionella pneumophila 130b. The conditions noted are these: 6 uM.
Assay [9] deals with Legionella pneumophila 130b. As to conditions: 6 uM. This is another data set of the same source.
For assay [10], the target named is T1, Ectonucleoside triphosphate diphosphohydrolase 3 (Homo sapiens) (UniProt O75355).
T1 sequence (whole entry): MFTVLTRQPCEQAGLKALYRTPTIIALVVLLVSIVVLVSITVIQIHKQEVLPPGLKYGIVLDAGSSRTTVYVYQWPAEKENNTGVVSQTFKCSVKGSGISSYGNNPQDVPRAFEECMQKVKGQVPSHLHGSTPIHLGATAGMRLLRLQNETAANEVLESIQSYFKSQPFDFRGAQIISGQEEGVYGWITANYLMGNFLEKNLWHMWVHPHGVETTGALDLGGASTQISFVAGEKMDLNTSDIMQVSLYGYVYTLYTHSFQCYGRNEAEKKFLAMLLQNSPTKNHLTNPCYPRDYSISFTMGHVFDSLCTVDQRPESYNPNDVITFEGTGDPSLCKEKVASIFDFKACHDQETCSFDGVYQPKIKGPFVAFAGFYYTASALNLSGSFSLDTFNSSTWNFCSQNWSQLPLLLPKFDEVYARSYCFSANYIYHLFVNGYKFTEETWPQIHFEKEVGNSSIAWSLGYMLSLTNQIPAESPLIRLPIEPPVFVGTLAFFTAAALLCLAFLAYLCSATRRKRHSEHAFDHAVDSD
Put plainly: Inhibition of recombinant human NTPDase3 expressed in mouse NS0 cells using ADP as substrate at 30 uM incubated for 10 mins by capillary electrophoresis method relative to control.

The target in assay [11] is T2, Ectonucleoside triphosphate diphosphohydrolase 1 (Homo sapiens, UniProt P49961).
T2 sequence (P49961 whole entry): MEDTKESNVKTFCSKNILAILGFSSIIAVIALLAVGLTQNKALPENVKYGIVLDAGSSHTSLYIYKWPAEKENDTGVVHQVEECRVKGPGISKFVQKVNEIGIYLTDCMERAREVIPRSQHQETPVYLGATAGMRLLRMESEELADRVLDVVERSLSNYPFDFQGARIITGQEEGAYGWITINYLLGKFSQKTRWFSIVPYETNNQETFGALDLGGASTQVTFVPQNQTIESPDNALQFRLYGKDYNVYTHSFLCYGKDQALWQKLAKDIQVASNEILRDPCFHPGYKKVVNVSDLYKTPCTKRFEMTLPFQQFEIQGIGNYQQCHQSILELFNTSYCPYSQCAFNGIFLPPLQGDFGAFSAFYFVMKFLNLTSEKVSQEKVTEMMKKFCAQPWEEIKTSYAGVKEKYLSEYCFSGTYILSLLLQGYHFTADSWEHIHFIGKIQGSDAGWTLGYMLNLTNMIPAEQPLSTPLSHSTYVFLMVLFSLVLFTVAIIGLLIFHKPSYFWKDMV
In words: Inhibition of recombinant human NTPDase1 expressed in CHO cells using ADP as substrate incubated for 10 mins by capillary electrophoresis method.

The target of assay [12] is T3, Ectonucleoside triphosphate diphosphohydrolase 2 (Homo sapiens, UniProt Q9Y5L3).
T3 sequence (Q9Y5L3 whole entry): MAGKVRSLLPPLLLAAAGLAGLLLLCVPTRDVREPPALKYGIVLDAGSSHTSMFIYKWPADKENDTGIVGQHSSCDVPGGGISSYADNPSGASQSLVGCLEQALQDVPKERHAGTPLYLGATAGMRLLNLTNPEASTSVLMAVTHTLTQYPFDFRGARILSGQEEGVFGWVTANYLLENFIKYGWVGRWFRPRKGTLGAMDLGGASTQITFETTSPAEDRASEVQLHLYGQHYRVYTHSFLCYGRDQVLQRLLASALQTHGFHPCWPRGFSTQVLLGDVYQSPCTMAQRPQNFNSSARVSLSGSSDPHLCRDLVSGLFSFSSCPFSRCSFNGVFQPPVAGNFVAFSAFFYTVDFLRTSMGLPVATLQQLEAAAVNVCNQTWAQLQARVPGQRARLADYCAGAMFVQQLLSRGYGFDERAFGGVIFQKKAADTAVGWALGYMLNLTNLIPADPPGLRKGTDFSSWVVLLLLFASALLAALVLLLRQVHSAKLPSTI
In words: Inhibition of recombinant human NTPDase2 expressed in CHO cells using ADP as substrate incubated for 10 mins by capillary electrophoresis method.

For the compound `Cc1ccc2ccccc2c1Nc1cc(S(=O)(=O)O)c(N)c2c1C(=O)c1ccccc1C2=O`, the IC50 in assay [1] worked out at 13.6 µM. Further, the inhibition in [2] is 76%. For the same compound, in assay [3], the Ki was determined as 9.58 µM.
As to `Nc1c(S(=O)(=O)O)cc(Nc2cccc([N+](=O)[O-])c2)c2c1C(=O)c1ccccc1C2=O`, the inhibition in assay [2] is 44%.
Consider `Nc1c(S(=O)(=O)O)cc(Nc2ccc(Nc3nc(Cl)nc(Nc4ccccc4S(=O)(=O)O)n3)c(S(=O)(=O)O)c2)c2c1C(=O)c1ccccc1C2=O`, for which the inhibition in assay [2] was 45%.
The same measure, in the same setting: next, `Nc1c(S(=O)(=O)O)cc(Nc2cccc(Br)c2)c2c1C(=O)c1ccccc1C2=O`: 44%.
Take `Nc1c(S(=O)(=O)O)cc(Nc2ccccc2)c2c1C(=O)c1ccccc1C2=O`: the inhibition in assay [2] stood at 31%.
`CCc1ccccc1Nc1cc(S(=O)(=O)O)c(N)c2c1C(=O)c1ccccc1C2=O`: the inhibition in [2] came to 39%.
For `CCOP(=O)(Cc1ccc(Nc2cc(S(=O)(=O)O)c(N)c3c2C(=O)c2ccccc2C3=O)cc1)OCC`, in assay [2], the inhibition result was “inactive”.
In the case of `Nc1c(S(=O)(=O)O)cc(Nc2ccc3cc(C(=O)O)ccc3c2)c2c1C(=O)c1ccccc1C2=O`, the inhibition in [2] came out at 32%.
As for `Nc1c(S(=O)(=O)O)cc(Nc2cccc3c(S(=O)(=O)O)cccc23)c2c1C(=O)c1ccccc1C2=O`, the inhibition in assay [2] was determined as 26%.
Take `Nc1c(S(=O)(=O)O)cc(Nc2cccc3ccccc23)c2c1C(=O)c1ccccc1C2=O`: the half-inhibitory concentration (IC50) in assay [1] was found to be 12.2 µM. Besides, the inhibition in assay [2] came out at 62%. The Ki in assay [3] was 8.59 µM.
With `CCCNc1cc(S(=O)(=O)O)c(N)c2c1C(=O)c1ccccc1C2=O`, the inhibition result in assay [2] was “inactive”.
As for `Nc1c(S(=O)(=O)O)cc(Nc2ccc(Nc3nc(Cl)nc(Cl)n3)c(S(=O)(=O)O)c2)c2c1C(=O)c1ccccc1C2=O`, the inhibition in assay [2] was determined as 8%.
For the compound `Nc1c(S(=O)(=O)O)cc(Nc2ccc3ccccc3c2)c2c1C(=O)c1ccccc1C2=O`, in [2], the inhibition stood at 51%.
As for `Cc1ccccc1Nc1cc(S(=O)(=O)O)c(N)c2c1C(=O)c1ccccc1C2=O`, the inhibition in assay [2] stood at 44%.
In the case of `Nc1c(S(=O)(=O)O)cc(Nc2ccc(Cl)cc2)c2c1C(=O)c1ccccc1C2=O`, the concentration for half-maximal inhibition (IC50) in [1] stood at 17.6 µM. The inhibition in assay [2] was determined as 66%. In addition, in assay [3], the Ki worked out at 12.4 µM.
With `Nc1c(S(=O)(=O)O)cc(Nc2ccccc2F)c2c1C(=O)c1ccccc1C2=O`, the inhibition entry in [2] is “inactive”.
On the same count and under the same terms, next, `Cc1cc(C)c(Nc2cc(S(=O)(=O)O)c(N)c3c2C(=O)c2ccccc2C3=O)c(C)c1`: 44%; `Nc1c(S(=O)(=O)O)cc(Nc2cccc3cc(S(=O)(=O)O)ccc23)c2c1C(=O)c1ccccc1C2=O`: 30%.
With `Nc1c(S(=O)(=O)O)cc(NC2CCCCC2)c2c1C(=O)c1ccccc1C2=O`, the inhibition in assay [2] was determined as 22%.
Consider `Cc1cccc(Nc2cc(S(=O)(=O)O)c(N)c3c2C(=O)c2ccccc2C3=O)c1`, for which the inhibition in assay [2] was 53%.
Still for that read-out and setting: next, `COc1ccccc1Oc1ccc(Nc2cc(S(=O)(=O)O)c(N)c3c2C(=O)c2ccccc2C3=O)cc1`: 28%.
As for `CCN(CC)c1ncnc2c1ncn2[C@@H]1O[C@H](COP(=O)(O)OP(=O)(O)OC(Br)(Br)P(=O)(O)O)[C@@H](O)[C@H]1O`, affinity in assay [4] was put at a Ki of 500 µM.
In the case of `Nc1c(S(=O)(=O)O)cc(Nc2cc3ccccc3c3ccccc23)c2c1C(=O)c1ccccc1C2=O`, the IC50 came to 4.24 µM in assay [1], 20 µM in assay [11] and 3 µM in [12]. Besides, the Km worked out at 623 µM in assay [5] and 710 µM in [9]. Further, the inhibition turned out to be 90% in assay [2] and 18% in assay [10]. In addition, in assay [6], the inhibition result is “Active”. For the same compound, the values for the Vmax in [7] and in assay [8] were 327 µmol/min/mg and 272 µmol/min/mg, respectively. Further, the Ki in [3] stood at 2.99 µM.
As for `Nc1c(S(=O)(=O)O)cc(NCCc2ccccc2)c2c1C(=O)c1ccccc1C2=O`, in [2], the inhibition entry is “inactive”.

A word on the IC50: it is the concentration at which inhibition is half-maximal. In general, inhibition refers to the percentage by which the read-out fell short of the control. By Ki is commonly meant a measure of affinity in units of concentration, obtained from inhibition or displacement. As usually defined, the Km is the substrate concentration at which the rate is half of its maximum. The Vmax is the top rate of the reaction or transport when substrate is in excess.
